From ChEMBL document CHEMBL6109121, “Discovery of Novel Sulfonylurea NLRP3 Inflammasome Inhibitor for the Treatment of Multiple Inflammatory Diseases” (J Med Chem, 2025)
The source made the active and inactive calls. No cut-off for these calls is given here.

Assays:
[1] = Inhibition of NLRP3 inflammasome activation in LPS/ATP-stimulated male C57BL/6J mouse BMDM cells assessed as inhibition of IL-1beta secretion […] for 4 hrs followed by compound administration for 30 mins and measured after 1 hrs of ATP addition by ELISA; type: cell-based
[2] = Cytotoxicity against male C57BL/6J mouse BMDM cells; type: functional
[3] = system: Mus musculus; assay: Antidiabetic activity in HFD-fed STZ-induced diabetic kidney disease male C57BL/6J mouse model assessed as reduction in macrophage infiltration in kidney at 20 mg/kg fed with high fat diet for 4 weeks followed by STZ administration for 5 days and measured 6 weeks post compound administration via gavage by F4/80 immunostaining based analysis; type: functional, organism-based
[4] = system: Mus musculus; assay: Effect on TNF-alpha level in serum of LPS/ATP-induced acute peritonitis male C57BL/6J mouse model at 20 mg/kg, po preadministered with compound for 1 hrs followed by LPS addition for 2 hrs and measured 12 hrs post ATP administration by ELISA; type: functional, organism-based; conditions: time 13.0 hrs
[5] = system: Mus musculus; assay: Anti-colitis activity in DSS-induced acute ulcerative colitis male C57BL/6J mouse model assessed as increase in colon length at 5 mg/kg, po preadministered with DSS for 7 days followed by 3 days of drinking water and measured after 10 days of compound administration; type: functional, organism-based; conditions: time 10.0 day
[6] = biological target: NACHT, LRR and PYD domains-containing protein 3 (Mus musculus) (UniProt Q8R4B8); conditions: C57BL/6J, dose 20.0 mg/kg, route po, time 13.0 hrs
[7] = system: Mus musculus; assay: Anti-colitis activity in DSS-induced acute ulcerative colitis male C57BL/6J mouse model assessed as reduction in body weight loss at 5 mg/kg, po preadministered with DSS for 7 days followed by 3 days of drinking water and measured after 10 days of compound administration; type: functional, organism-based; conditions: time 10.0 day
[8] = system: Mus musculus; assay: Anti-colitis activity in DSS-induced acute ulcerative colitis male C57BL/6J mouse model assessed as improvement in stool consistency at 5 mg/kg, po preadministered with DSS for 7 days followed by 3 days of drinking water and measured after 10 days of compound administration; type: functional, organism-based; conditions: time 10.0 day
[9] = system: Mus musculus; assay: Anti-colitis activity in DSS-induced acute ulcerative colitis male C57BL/6J mouse model assessed as reduction in fecal bleeding at 5 mg/kg, po preadministered with DSS for 7 days followed by 3 days of drinking water and measured after 10 days of compound administration; type: functional, organism-based; conditions: time 10.0 day
[10] = Inhibition of NLRP3 inflammasome activation in human THP-1 cells assessed as inhibition of IL-1beta release; type: cell-based
[11] = system: Mus musculus; assay: Anti-colitis activity in DSS-induced acute ulcerative colitis male C57BL/6J mouse model assessed as decrease in disease activity index score at 5 mg/kg, po preadministered with DSS for 7 days followed by 3 days of drinking water and measured after 10 days of compound administration; type: functional, organism-based; conditions: time 10.0 day
[12] = system: Mus musculus; assay: Antidiabetic activity in HFD-fed STZ-induced diabetic kidney disease male C57BL/6J mouse model assessed as improvement of glucose tolerance at 20 mg/kg fed with high fat diet for 4 weeks followed by STZ administration for 5 days further administered with compound via gavage for 6 weeks and measured after 120 mins of glucose administration by OGTT; type: functional, organism-based; conditions: time 60600.0 min

Sequence of NACHT, LRR and PYD domains-containing protein 3 (Mus musculus) (Q8R4B8 whole entry, the tested form may be a part): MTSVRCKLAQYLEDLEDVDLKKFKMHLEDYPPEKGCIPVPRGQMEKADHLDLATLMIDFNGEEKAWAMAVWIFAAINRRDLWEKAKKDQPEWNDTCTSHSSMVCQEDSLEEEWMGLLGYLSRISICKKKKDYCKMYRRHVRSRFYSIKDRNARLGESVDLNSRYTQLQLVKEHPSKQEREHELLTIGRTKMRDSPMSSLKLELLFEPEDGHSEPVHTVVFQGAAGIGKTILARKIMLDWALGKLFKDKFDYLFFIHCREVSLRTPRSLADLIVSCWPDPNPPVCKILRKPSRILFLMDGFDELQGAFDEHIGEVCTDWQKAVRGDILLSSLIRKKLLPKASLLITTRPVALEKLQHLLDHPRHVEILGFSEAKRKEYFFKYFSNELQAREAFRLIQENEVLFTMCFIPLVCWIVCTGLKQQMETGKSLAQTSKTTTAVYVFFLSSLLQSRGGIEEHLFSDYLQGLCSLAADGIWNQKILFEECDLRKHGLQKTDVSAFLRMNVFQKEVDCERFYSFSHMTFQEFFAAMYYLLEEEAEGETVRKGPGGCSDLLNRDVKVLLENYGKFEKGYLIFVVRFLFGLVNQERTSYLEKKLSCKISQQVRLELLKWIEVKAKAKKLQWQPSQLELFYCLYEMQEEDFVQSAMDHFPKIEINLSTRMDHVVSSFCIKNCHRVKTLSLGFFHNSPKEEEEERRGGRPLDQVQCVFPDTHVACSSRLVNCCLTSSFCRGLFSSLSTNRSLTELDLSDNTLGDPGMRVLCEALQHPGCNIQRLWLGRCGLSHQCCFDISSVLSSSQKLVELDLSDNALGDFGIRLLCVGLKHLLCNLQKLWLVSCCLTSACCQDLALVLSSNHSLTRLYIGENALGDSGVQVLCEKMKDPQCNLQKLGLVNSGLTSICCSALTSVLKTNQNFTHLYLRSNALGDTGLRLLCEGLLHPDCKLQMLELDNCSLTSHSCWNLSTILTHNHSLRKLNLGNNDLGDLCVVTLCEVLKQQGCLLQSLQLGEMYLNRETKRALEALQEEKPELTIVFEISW

Compound | IC50 [1] [µM] | CC50 [2] [µM] | other results
O=C(Nc1c2c(cc3c1CCC3)CCC2)NS(=O)(=O)N1CCNC2(CC2)C1 | 2.03 | > 100 | 
CN(C)C(=O)c1ccccc1NC(=O)NS(=O)(=O)c1cc(C(C)(C)O)co1 | > 50 | > 100 | 
O=C(Nc1c2c(cc3c1CCC3)CCC2)NS(=O)(=O)Nc1cnn(C2CCOCC2)c1 | 0.139 | > 100 | 
CC(C)(O)c1coc(S(=O)(=O)NC(=O)Nc2ccccc2Oc2ccccc2)c1 | > 50 | > 100 | 
CCN1CCC(N(C)S(=O)(=O)NC(=O)Nc2c3c(cc4c2CCC4)CCC3)CC1 | 0.724 | > 100 | 
CC(C)(O)c1coc(S(=O)(=O)NC(=O)Nc2ccccc2C(=O)c2ccoc2)c1 | > 50 | > 100 | 
O=C(Nc1c2c(cc3c1CCC3)CCC2)NS(=O)(=O)NC1CCN(C2CC2)CC1 | 1.95 | > 100 | 
CN1CCC(N(C)S(=O)(=O)NC(=O)Nc2cccc3c2oc2ccccc23)CC1 | > 50 | > 100 | 
CC(C)N1CCC(NS(=O)(=O)NC(=O)Nc2c3c(cc4c2CCC4)CCC3)CC1 | 2.9 | > 100 | 
CN1CCC(NS(=O)(=O)NC(=O)Nc2c3c(cc4c2CCC4)CCC3)CC1 | 0.979 | > 100 | 
CC(C)(O)c1coc(S(=O)(=O)NC(=O)Nc2ccccc2C(=O)c2ccccn2)c1 | > 50 | > 100 | 
CC(C)(O)c1coc(S(=O)(=O)NC(=O)Nc2c3c(cc4c2CCC4)CCC3)c1 | 0.036 |  | Activity [3]: inactive; Activity [4]: inactive; Activity [5]: inactive; inhibition [6]: Active; Activity [7]: Active; Significant Difference Not Observed; Activity [8]: Active; Activity [9]: Active; IC50 [10]: 0.058 µM; Activity [11]: Active; Activity [12]: inactive
O=C(Nc1c2c(cc3c1CCC3)CCC2)NS(=O)(=O)N1CCc2ccccc2C1 | 0.317 | > 100 | 
CN(C1CCN(Cc2ccccc2)CC1)S(=O)(=O)NC(=O)Nc1c2c(cc3c1CCC3)CCC2 | > 50 | > 100 | 
CN(C1CCOCC1)S(=O)(=O)NC(=O)Nc1c2c(cc3c1CCC3)CCC2 | 0.544 | > 100 | 
CC(C)(O)c1coc(S(=O)(=O)NC(=O)Nc2ccccc2Sc2ccccc2)c1 | 35.1 | > 100 | 
CC(C)(O)c1coc(S(=O)(=O)NC(=O)Nc2ccccc2C(=O)N2CCCC2)c1 | 19.1 | > 100 | 
Cc1ccc2cccc(NC(=O)NS(=O)(=O)N(C)C3CCN(C)CC3)c2n1 | > 50 | > 100 | 

Compound | IC50 [1] [µM] | CC50 [2] [µM] | other results
O=C(Nc1c2c(cc3c1CCC3)CCC2)NS(=O)(=O)N1CCC(F)(F)CC1 | 1.12 | > 100 | 
CN1CCC(N(C)S(=O)(=O)NC(=O)Nc2cccc3c2NC(=O)C3)CC1 | > 50 | > 100 | 
CC(C)(O)c1coc(S(=O)(=O)NC(=O)Nc2ccccc2C(=O)c2ccccc2)c1 | 3.82 | > 100 | 
CC(C)(O)c1coc(S(=O)(=O)NC(=O)Nc2ccccc2Cc2ccccc2)c1 | > 50 | > 100 | 
CC(C)(O)c1coc(S(=O)(=O)NC(=O)Nc2ccccc2C(=O)N2CCOCC2)c1 | > 50 | > 100 | 
O=C(Nc1c2c(cc3c1CCC3)CCC2)NS(=O)(=O)N1CCN2CCC1CC2 | 0.185 | > 100 | 
CN1CCC(n2cc(NS(=O)(=O)NC(=O)Nc3c4c(cc5c3CCC5)CCC4)cn2)CC1 | 2.99 | > 100 | 
Cn1cc(NS(=O)(=O)NC(=O)Nc2c3c(cc4c2CCC4)CCC3)cn1 | 0.155 | > 100 | 
CN1CCC(N(C)S(=O)(=O)NC(=O)Nc2cccc3c2C(=O)c2ccccc2-3)CC1 | > 50 | > 100 | 
CN1CCC(N(C)S(=O)(=O)NC(=O)Nc2cc(C(C)(C)C)ccc2-c2ccc(C(C)(C)C)cc2)CC1 | > 50 | 10.2 | 
CN1CCC(N(C)S(=O)(=O)NC(=O)Nc2cccc3c2OCO3)CC1 | > 50 | > 100 | 
CN(c1ccncc1)S(=O)(=O)NC(=O)Nc1c2c(cc3c1CCC3)CCC2 | 4.43 | > 100 | 
C=C(c1ccccc1)c1ccccc1NC(=O)NS(=O)(=O)c1cc(C(C)(C)O)co1 | 19.8 | > 100 | 
CN1CCC(N(C)S(=O)(=O)NC(=O)Nc2ccccc2C(=O)c2ccccc2)CC1 | 18 | > 100 | 
CN1CCC(N(C)S(=O)(=O)NC(=O)Nc2c3c(cc4c2CCC4)CCC3)C1 (centres undefined) | 0.122 | > 100 | 
CN1CCC(N(C)S(=O)(=O)NC(=O)Nc2ccc3c(c2)Cc2ccccc2-3)CC1 | > 50 | > 100 | 
CC(=O)N1CCC(NS(=O)(=O)NC(=O)Nc2c3c(cc4c2CCC4)CCC3)CC1 | 5.37 | > 100 | 
